The text below walks through data of PMC2226154 (The Journal of General Physiology, 1974).

What is called Ki is a measure of affinity in units of concentration, obtained from inhibition or displacement.

Data set [1] concerns the target T1, neutral amino acid transport system in rabbit ileum (Oryctolagus cuniculus, UniProt B4XTG9). Put plainly: Inhibition of L-methionine-14C influx across the brush border membrane. The following applies: for fold decrease in apparent affinity: compared to the corresponding parent compound.
Data set [2] has as its target T1, neutral amino acid transport system in rabbit ileum. The following applies: direct measurement of influx; cited from earlier work.
The conditions of data set [3]: measured by Church and Hansch, unpublished; cited from earlier work.
The target in data set [4] is T1, neutral amino acid transport system in rabbit ileum. The following applies: Hajjar and Curran, phenylalanine analogs; cited from earlier work.

Molecules are shown by their SMILES. Like-named read-outs stand apart in the source and are kept apart here.

Consider `O[C@@H](CS)[C@@H](O)CS` (racemic) [Dithiothreitol], for which the “effect on methionine influx” value in data set [1] (30 mM, separate control experiments) is given as “minimal effect”.

For the molecule `C[C@H](N)C(=O)O` [Alanine], in data set [2], the Apparent affinity is 14 M⁻¹. In addition, in data set [3], the “log P (octanol/water partition coefficient)” value is recorded as -2.94.

As for `C=CC[C@H](N)C(=O)O` [Allylglycine], the “affinity lower than that of norvaline” value in data set [1] was “approximately 30%”.

Turning to `CSCC[C@@H](N)C(=O)O` [D-methionine], in data set [1], the “fold decrease in apparent affinity” value was “approximately 50 fold”.

Take `CCSCC[C@H](N)C(=O)O` [Ethionine]: the results for the “observed ratio of KI” value in data set [1] (0.5 mM methionine (reference)), in data set [1] (2 mM methionine relative to 0.5 mM) and in data set [1] (3 mM methionine relative to 0.5 mM) were 1.00, 0.98 and 1.08, respectively.

In the case of `CCOC(=O)CCC(N)C(=O)O` (stereo not drawn) [Glutamic acid 7-ethyl ester], the “fold higher affinity than glutamic acid” value in data set [1] worked out at 10 fold.

For the molecule `COC(=O)CC[C@H](N)C(=O)O` [Glutamic acid Y-methyl ester], in data set [1], the “fold higher affinity than glutamic acid” value is reported as 10 fold.

As to `NCC(=O)O` [Glycine], in data set [2], the Apparent affinity is 8 M⁻¹.

As for `CC(C)C[C@H](N)C(=O)O` [Leucine], in data set [2], the Apparent affinity is 32 M⁻¹.

As to `CN[C@@H](Cc1ccccc1)C(=O)O` [N-methyl phenylalanine], the Apparent affinity result in data set [4] was “very low apparent affinity”.

Turning to `N[C@@H](Cc1ccccc1)C(=O)O` [Phenylalanine], the Apparent affinity in data set [4] is 56 M⁻¹.

Turning to `CCC(O)C(N)C(=O)O` (stereo not drawn) [a-Amino-b-hydroxy valeric acid, a-amino-b-hydroxyvaleric acid], the Ki in data set [1] (read-out: KI observed, Table V, [Na] 35) came out at 5 mM.

Consider `O=C(O)C(O)Cc1ccccc1` (stereo not drawn) [phenyllactic acid], for which the Apparent affinity in data set [4] is 0.8 M⁻¹.

Turning to `O=C(O)CCc1ccccc1` [phenylpropionic acid], in data set [4], the Apparent affinity was 1.2 M⁻¹.

For `CC(C)(C)C(N)C(=O)O` (stereo not drawn) [tertiary leucine], the “fold decrease in apparent affinity” value in data set [1] is recorded as ~10 fold.
